The values below are quoted from earlier work in US20170128514A1, “PHARMACEUTICAL COMPOSITION FOR TREATING CARDIO-CEREBROVASCULAR DISEASES AND METHOD FOR PREPARING THE SAME” (priority 2014, published 2017).

Data set [1] has as its system acute coronary syndrome (ACS). The settings on record: human, in vivo.
The test system of data set [2] is thrombocytopenia caused by heparin.

For hirudin, the “efficacy in treating acute coronary syndrome (ACS) compared with heparin” value in data set [1] was “more significant than the heparin”. The “patients with blood platelets recovered and normal” value in data set [2] (14.4 hrs. after the treatment) is listed as 88.7%. The bleeding entry in data set [2] (in vivo) is recorded as “bleeding only occurs in a dose much larger than the required dose for anti-coagulation”.
